According to the supplement of paper PMC6045584:
± gives the standard deviation of the averaged measurements.

Experiments:
[1] = compound: Oc1ccc(/C=C/c2cc(O)cc(O)c2)cc1 [RESVERATROL]; assay: surviving fraction relative to DMSO-only wells; higher = less growth inhibition; details: exposure time: 5 days
In short: (§1)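 At 250–500 cells per well in 384-well plates, log-phase tumour cell lines were seeded and, 24 hours on, exposed continuously for five days to inhibitors at 0.5, 1, 5, 10, 50, 100, 500 and 1000 nM. Viability readout was CellTiter-Glo luminescence, reported as surviving fraction normalised to the median of DMSO-only wells.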

[2] = compound: COc1ccc(C2=N[C@@H](c3ccc(Cl)cc3)[C@@H](c3ccc(Cl)cc3)N2C(=O)N2CCNC(=O)C2)c(OC(C)C)c1 [NUTLIN3]; assay: as above; details: exposure time: 5 days
In short: as §1

| Test System | surviving fraction ([1]; 0.5 nM) | surviving fraction ([1]; 1 nM) | surviving fraction ([1]; 5 nM) | surviving fraction ([1]; 10 nM) | surviving fraction ([1]; 50 nM) | surviving fraction ([1]; 100 nM) | surviving fraction ([1]; 500 nM) | surviving fraction ([1]; 1000 nM) | surviving fraction ([2]; 0.5 nM) | surviving fraction ([2]; 1 nM) | surviving fraction ([2]; 5 nM) | surviving fraction ([2]; 10 nM) | surviving fraction ([2]; 50 nM) | surviving fraction ([2]; 100 nM) | surviving fraction ([2]; 500 nM) | surviving fraction ([2]; 1000 nM) |
| --- | --- | --- | --- | --- | --- | --- | --- | --- | --- | --- | --- | --- | --- | --- | --- | --- |
| DU4475 BREAST | 1 ± 0.13 | 0.973 ± 0.051 | 0.967 ± 0.13 | 0.964 ± 0.074 | 0.985 ± 0.1 | 1.05 ± 0.17 | 1.02 ± 0.047 | 1.1 ± 0.22 | 0.825 ± 0.3 | 0.909 ± 0.2 | 1 ± 0.52 | 1.13 ± 0.49 | 0.965 ± 0.39 | 1.12 ± 0.51 | 0.832 ± 0.42 | 0.673 ± 0.47 |
| H23 LUNG | 0.99 ± 0.019 | 1.06 ± 0.051 | 1.02 ± 0.071 | 1.05 ± 0.023 | 0.994 ± 0.044 | 1.07 ± 0.036 | 1 ± 0.034 | 1.11 ± 0.096 | 1.02 ± 0.062 | 1.01 ± 0.056 | 1.02 ± 0.034 | 1.04 ± 0.048 | 1.08 ± 0.055 | 1.09 ± 0.085 | 1.05 ± 0.044 | 0.912 ± 0.031 |
| HCC78 LUNG | 0.894 ± 0.15 | 0.894 ± 0.065 | 0.983 ± 0.035 | 1.05 ± 0.15 | 1.12 ± 0.2 | 1.03 ± 0.1 | 0.901 ± 0.26 | 0.904 ± 0.1 | 1 ± 0.075 | 0.918 ± 0.053 | 0.918 ± 0.19 | 0.883 ± 0.18 | 0.946 ± 0.12 | 0.877 ± 0.11 | 0.889 ± 0.12 | 0.941 ± 0.07 |
| HCC202 BREAST | 1 ± 0.23 | 1.18 ± 0.11 | 1.14 ± 0.059 | 1.06 ± 0.05 | 1.75 ± 0.46 | 1.49 ± 0.42 | 1.32 ± 0.14 | 1.33 ± 0.39 | 1.1 ± 0.15 | 1.07 ± 0.14 | 1.14 ± 0.14 | 1.15 ± 0.17 | 1.2 ± 0.12 | 1.27 ± 0.13 | 1.23 ± 0.16 | 1.23 ± 0.21 |
| HCC1395 BREAST | 0.968 ± 0.099 | 1.07 ± 0.075 | 1.1 ± 0.069 | 1.28 ± 0.16 | 1.02 ± 0.094 | 1.21 ± 0.1 | 1.05 ± 0.09 | 0.985 ± 0.15 | 1.18 ± 0.046 | 1.14 ± 0.1 | 1.25 ± 0.022 | 1.12 ± 0.069 | 1.21 ± 0.06 | 1.09 ± 0.061 | 0.999 ± 0.094 | 1.13 ± 0.16 |
| HCC1806 BREAST | 1.04 ± 0.073 | 1.04 ± 0.072 | 1.18 ± 0.14 | 1.18 ± 0.051 | 1.24 ± 0.049 | 1.23 ± 0.044 | 0.963 ± 0.029 | 0.963 ± 0.19 | 1.07 ± 0.079 | 1.04 ± 0.1 | 1.07 ± 0.15 | 1.08 ± 0.13 | 1.07 ± 0.1 | 1.05 ± 0.17 | 1.05 ± 0.16 | 1.17 ± 0.2 |
| HCC1954 BREAST | 1.06 ± 0.055 | 1.12 ± 0.012 | 1.21 ± 0.065 | 1.39 ± 0.098 | 1.03 ± 0.025 | 1.25 ± 0.19 | 0.997 ± 0.065 | 0.934 ± 0.064 | 1.17 ± 0.071 | 1.16 ± 0.08 | 1.11 ± 0.07 | 1.01 ± 0.36 | 1.22 ± 0.26 | 1.14 ± 0.064 | 1.15 ± 0.051 | 0.99 ± 0.036 |
| HCT15 LARGE INTESTINE | 0.982 ± 0.12 | 1.03 ± 0.12 | 1.02 ± 0.1 | 1.02 ± 0.093 | 1.05 ± 0.08 | 1.06 ± 0.095 | 0.968 ± 0.15 | 1.08 ± 0.11 | 1.01 ± 0.038 | 1.01 ± 0.013 | 1.01 ± 0.018 | 0.992 ± 0.013 | 1.05 ± 0.034 | 1.07 ± 0.061 | 1.04 ± 0.056 | 1.01 ± 0.017 |
